Results from patent EP2072514A1, “1(2)H-tetrazol-5-yl-phenyl-oxazolidinones as antibacterial agents” (Ferrer Internacional, S.A., priority 2007, dated 2009).
In brackets after ≈: the same amount, converted by molar mass.

Assays:
human MAO-A = molecular target: T1, human MAO-A (Homo sapiens, UniProt P21397); test: In vitro MAO-A enzymatic activity (kynuramine substrate, fluorometry); assay type: biochemical; settings: membranes from SF9 cells expressing human MAO-A; kynuramine 30 µM, 37° for 40 min
T1 construct: purchased Gentest, BD, USA; host or cells: SF9 cells (membranes)
T1 sequence (P21397 1-527): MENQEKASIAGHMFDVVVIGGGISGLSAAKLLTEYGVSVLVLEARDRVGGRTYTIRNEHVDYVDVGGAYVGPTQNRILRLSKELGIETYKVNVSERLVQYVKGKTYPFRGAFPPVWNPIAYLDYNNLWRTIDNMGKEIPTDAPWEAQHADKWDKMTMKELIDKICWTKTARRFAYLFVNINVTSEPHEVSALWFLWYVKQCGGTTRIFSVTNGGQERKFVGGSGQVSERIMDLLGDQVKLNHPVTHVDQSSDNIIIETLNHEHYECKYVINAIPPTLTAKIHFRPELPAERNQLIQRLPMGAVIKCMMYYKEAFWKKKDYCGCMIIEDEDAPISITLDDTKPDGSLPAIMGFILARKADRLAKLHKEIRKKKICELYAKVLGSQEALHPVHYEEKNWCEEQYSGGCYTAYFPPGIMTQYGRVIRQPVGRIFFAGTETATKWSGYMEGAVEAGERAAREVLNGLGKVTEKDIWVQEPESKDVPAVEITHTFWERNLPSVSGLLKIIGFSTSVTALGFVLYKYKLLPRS
Description: (§1) MAO-A and MAO-B enzymatic activities were measured using membranes obtained from SF9 cells expressing either human MAO-A or human MAO-B (Gentest, BD, USA). Assays were done in blank 96-well micro titter plates using kynuramine as substrate and measuring the formation of 4-hydroxyquinoline by fluorescence at 340 nm/465 nm. Briefly, membranes with MAO-A (0.006 mg/mL protein) and MAO-B (0.015 mg/mL protein) were incubated with kynuramine, 30 µM), at 37° for 40 min in the presence of the compound in a final volume of 200 µL. Reactions were stopped by adding NaOH 2N and the reaction product, 4-hydroxyquinoline, was determined by fluorometry using a Tecan Ultra reader.

human MAO-B = molecular target: T2, human MAO-B (Homo sapiens, UniProt P27338); test: In vitro MAO-B enzymatic activity (kynuramine substrate, fluorometry); assay type: biochemical; settings: membranes from SF9 cells expressing human MAO-B; kynuramine 30 µM, 37° for 40 min
T2 construct: purchased Gentest, BD, USA; host or cells: SF9 cells (membranes)
T2 sequence (P27338 1-520): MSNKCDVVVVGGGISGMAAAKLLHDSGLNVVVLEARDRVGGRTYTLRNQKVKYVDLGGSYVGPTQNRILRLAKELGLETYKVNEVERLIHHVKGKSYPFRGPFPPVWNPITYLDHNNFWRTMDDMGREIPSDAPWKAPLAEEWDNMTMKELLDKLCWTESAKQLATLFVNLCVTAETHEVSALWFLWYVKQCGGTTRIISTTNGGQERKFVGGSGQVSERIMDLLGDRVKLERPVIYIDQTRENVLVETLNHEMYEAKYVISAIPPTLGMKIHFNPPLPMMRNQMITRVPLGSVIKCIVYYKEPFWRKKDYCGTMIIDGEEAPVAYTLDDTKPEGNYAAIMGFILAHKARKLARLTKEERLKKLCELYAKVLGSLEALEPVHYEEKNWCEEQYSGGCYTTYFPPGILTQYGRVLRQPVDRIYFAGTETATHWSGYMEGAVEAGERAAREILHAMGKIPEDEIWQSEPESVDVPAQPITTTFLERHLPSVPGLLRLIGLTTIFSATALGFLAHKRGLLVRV
Description: as §1

S. Aureus MR = test: MIC by standard micro dilution method (NCCLS M7-A5); assay type: cell-based, Staphylococcus aureus; settings: Mueller-Hinton medium (cation-adjusted), 16-24 h at 35°C; for MIC: Staphylococcus aureus, read-out: Geometric Mean MIC
S. epidermidis = test: as above; assay type: cell-based, Staphylococcus epidermidis; settings: Mueller-Hinton medium (cation-adjusted), 16-24 h at 35°C; for MIC: Staphylococcus epidermidis, read-out: Geometric Mean MIC
S. pneumoniae = test: as above; assay type: cell-based, Streptococcus pneumoniae; settings: 20-24h at 35°C; for MIC: Streptococcus pneumoniae, 5% CO2, read-out: Geometric Mean MIC
[1] = tested on: Moxarella, Pasteurella and Bacteroides spp.; settings: background art; cited from earlier work

Compound	Ki (human MAO-A)	Ki (human MAO-B)	MIC (S. Aureus MR)	MIC (S. epidermidis)	MIC (S. pneumoniae)	MICs [1]	Geometric Mean MIC (S. Aureus MR)	Geometric Mean MIC (S. epidermidis)	Geometric Mean MIC (S. pneumoniae; 5% CO2)
CC(=O)NC[C@H]1CN(c2ccc(-c3nnn(CCO)n3)c(F)c2)C(=O)O1 [Example 7, N-[[(5S)-3-[3-fluoro-4-(2-hydroxyethyl-2H-tetrazol-5-yl)-phenyl]-2-oxo-5-oxazolidinyl]methyl]acetamide]	28.8 µM	8.1 µM							
N-[[(5S)-3-[3-fluoro-4-(2-acetoacetyl-2H-tetrazol-5-yl)-phenyl]-2-oxo-5-oxazolidinyl]methyl]acetamide [Example 6]	37.1 µM	10.1 µM							
CC(=O)NC[C@H]1CN(c2ccc(-c3nnnn3C)c(F)c2)C(=O)O1 [Example 2, N-[[(5S)-3-[3-fluoro-4-(1-methyl-1H-tetrazol-5-yl)-phenyl]-2-oxo-5-oxazolidinyl]methyl]acetamide]	74.2 µM	14.2 µM	2 µg/mL (≈ 5.98 µM)	2 µg/mL (≈ 5.98 µM)	2 µg/mL (≈ 5.98 µM)				
CC(=O)NC[C@H]1CN(c2ccc(N3CCOCC3)c(F)c2)C(=O)O1 [Linezolid, N-[[(5S)-3-[3-fluoro-4-(4-morpholinyl)phenyl]-2-oxo-5-oxazolidinyl]methyl]acetamide, reference compound]			1 µg/mL (≈ 2.96 µM)	1 µg/mL (≈ 2.96 µM)	1 µg/mL (≈ 2.96 µM)	2 to 8 µg/mL			
N-[[(5S)-3-[3-fluoro-4-(1-hydroxyethyl-1H-tetrazol-5-yl)-phenyl]-2-oxo-5-oxazolidinyl]methyl]acetamide [Example 8]							2 µg/mL	1 µg/mL	2 µg/mL
